# Laboratory results as given in patent US9677052B2, “Modified lipopolysaccharide glycoform and method of use” (THE TRUSTEES OF PRINCETON UNIVERSITY, priority 2014, dated 2017).
# What was measured:
# waaL+ cells = details: 1 μg/ml vancomycin-BODIPY-FL, 10 min, wild-type background with intact OM
# Procedure: (§1) Overnight cultures were sub-cultured at 1:100 into fresh LB broth and grown for 1.5 h. A1 ml aliquot was taken, pelleted and was twice washed with 1 ml M63 medium. Cells were resuspended in 0.1 ml of M63 broth containing 1 μg/ml of vancomycin-BODIPY-FL (LifeTechnologies, V-34850). Cells were incubated at room temperature for 10 min and then washed twice with 1 ml M63 broth. Cells were then resuspended in 0.03 ml of M63 broth, and approximately […] was spotted onto an M63-agarose pad. Cells were immediately visualized on a Nikon Eclipse 90i microscope with a Nikon Plan Apo 1.4/100× Oil Ph3 phase objective.
# (§2) The ability of purified LPS* to bind vancomycin in vitro was assessed. LPS* was immobilized on a carboxymethylated dextran (CM3) chip and surface plasmon resonance was used to monitor interactions with differing concentrations of vancomycin. […] To test this hypothesis, weperformed live cell microscopy using a fluorescent vancomycin-BODIPY. A wild-type strain background with an intact OM that prevents the influx of vancomycin was used, to avoid labeling intracellular sites of PG synthesis.
# waaL15 bacteria = details: 1 μg/ml vancomycin-BODIPY-FL, 10 min, wild-type background with intact OM
# Procedure: as §1, §2
# [1] = Surface plasmon resonance, vancomycin over immobilized purified LPS*; design: species or system Escherichia coli; details: SPR, Biacore X100, 25° C., LPS* immobilized on CM3 chip, equilibrium signal fit; read-out: Kd, specific binding of vancomycin to LPS*
# Procedure: as §2
# [2] = Surface plasmon resonance, vancomycin over reference channel (LPS from waaL+); assay type: binding, Escherichia coli; details: SPR, 25° C., different concentrations of vancomycin
# Procedure: Purified LPS (0.5 mg/ml) from strains MG1210 or MG1211 were extruded in 20 mMTris/HCl pH 8, 150 mM NaCl and immobilized on poly-L-lysine coated CM3 Biacore chips on the active and reference channel, respectively (Malojcić et al., 2014). All experiments were performed using a Biacore X100 instrument at 25° C. at a flow rate of 10 μl/min with 20 mMTris/HCl pH 8, 150 mM NaCl buffer. Different concentrations of vancomycin were injected for 400 s and dissociation was recorded for another 500 s to return to baseline. […] The equilibrium signal in the difference channel was fitted to f=Bmax*abs(x)/(Kd+abs(x)) with R^2=0.88.
Compound,fluorescent labeling of cells (waaL+ cells),fluorescent labeling of cells (waaL15 bacteria),Kd [1] [nM],binding to the reference channel [2]
vancomycin-BODIPY-FL,could not be fluorescently labeled,circumferential labeling,,
CN[C@H](CC(C)C)C(=O)N[C@H]1C(=O)N[C@@H](CC(N)=O)C(=O)N[C@H]2C(=O)N[C@H]3C(=O)N[C@H](C(=O)N[C@H](C(=O)O)c4cc(O)cc(O)c4-c4cc3ccc4O)[C@H](O)c3ccc(c(Cl)c3)Oc3cc2cc(c3O[C@@H]2O[C@H](CO)[C@@H](O)[C@H](O)[C@H]2O[C@H]2C[C@](C)(N)[C@H](O)[C@H](C)O2)Oc2ccc(cc2Cl)[C@H]1O [vancomycin],,,480 ± 80,No binding
